Results: patent US12174198B2, “Methods of characterizing condensate-associated characteristics of compounds and uses thereof” (Dewpoint Therapeutics, Inc., priority 2019, dated 2024)

Key:
Assay type in all cases: physicochemical
[1] = test system: FUS-SNAP condensates versus PGL-3 condensates; assay: Condensate preference: ratio of FUS-SNAP I-in:I-out to PGL-3 I-in:I-out; settings: average FUS-SNAP I-in:I-out divided by average PGL-3 I-in:I-out
Protocol: (§1) The ratios of the average intensity measured in the target condensates and outside of the target condensates were calculated by dividing I-in by I-out, although dividing I-out by I-in could also have been used. The I-in:I-out ratios determined from the two different days of experiments were then averaged. The average I-in:I-out ratios for FUS-SNAP condensates are shown in FIG. 3 and the average I-in:I-out ratios for PGL-3 condensates are shown in FIG. 4. The standard deviation between the two experiments is represented by the error bars in FIG. 3 and FIG. 4.

PGL-3 condensates = target: T1, PGL-3 condensates (Caenorhabditis elegans, UniProt G5EBV6); assay: Fluorescence imaging of dye partitioning in PGL-3 condensates (I-in, I-out); settings: for Ratio of intensity inside:outside PGL-3 Condensates Day 1 / Ratio of intensity inside:outside PGL-3 Condensates Day 2 / Ratio of intensity inside:outside PGL-3 Condensates Average: I-in:I-out; for Ratio of intensity inside:outside PGL-3 Condensates Day 1 / Ratio of intensity inside:outside PGL-3 Condensates Day 2 / Ratio of intensity inside:outside PGL-3 Condensates Average / Intensity Inside with Dye Average / Intensity Inside with Dye 1 / Intensity Inside with Dye 2 / Intensity Inside with Dye 3 / Intensity Outside with Dye Average / Intensity Outside with Dye 1 / Intensity Outside with Dye 2 / Intensity Outside with Dye 3: 10 μM dye; for Ratio of intensity inside:outside PGL-3 Condensates Average: average of two days; for Intensity Inside with Dye Average / Intensity Inside with Dye 1 / Intensity Inside with Dye 2 / Intensity Inside with Dye 3 / Intensity Inside Dye-No Dye: inside PGL-3 condensate; for Intensity Inside with Dye Average / Intensity Inside with Dye 1 / Intensity Inside with Dye 2 / Intensity Inside with Dye 3 / Intensity Outside with Dye Average / Intensity Outside with Dye 1 / Intensity Outside with Dye 2 / Intensity Outside with Dye 3: 5 μM protein; for Intensity Inside with Dye Average / Intensity Outside with Dye Average: average of three images; for Intensity Inside with Dye Average / Intensity Inside with Dye 1 / Intensity Inside with Dye 2 / Intensity Inside with Dye 3 / Intensity Inside Dye-No Dye / Intensity Outside with Dye Average / Intensity Outside with Dye 1 / Intensity Outside with Dye 2 / Intensity Outside with Dye 3 / Intensity Outside (Dye-No Dye): one day of experiments; for Intensity Inside with Dye 1 / Intensity Outside with Dye 1: image 1; for Intensity Inside with Dye 2 / Intensity Outside with Dye 2: image 2; for Intensity Inside with Dye 3 / Intensity Outside with Dye 3: image 3; for Intensity Inside Dye-No Dye / Intensity Outside (Dye-No Dye): background corrected; for Intensity Outside with Dye Average / Intensity Outside with Dye 1 / Intensity Outside with Dye 2 / Intensity Outside with Dye 3 / Intensity Outside (Dye-No Dye): outside PGL-3 condensate
T1 sequence (G5EBV6 1-693): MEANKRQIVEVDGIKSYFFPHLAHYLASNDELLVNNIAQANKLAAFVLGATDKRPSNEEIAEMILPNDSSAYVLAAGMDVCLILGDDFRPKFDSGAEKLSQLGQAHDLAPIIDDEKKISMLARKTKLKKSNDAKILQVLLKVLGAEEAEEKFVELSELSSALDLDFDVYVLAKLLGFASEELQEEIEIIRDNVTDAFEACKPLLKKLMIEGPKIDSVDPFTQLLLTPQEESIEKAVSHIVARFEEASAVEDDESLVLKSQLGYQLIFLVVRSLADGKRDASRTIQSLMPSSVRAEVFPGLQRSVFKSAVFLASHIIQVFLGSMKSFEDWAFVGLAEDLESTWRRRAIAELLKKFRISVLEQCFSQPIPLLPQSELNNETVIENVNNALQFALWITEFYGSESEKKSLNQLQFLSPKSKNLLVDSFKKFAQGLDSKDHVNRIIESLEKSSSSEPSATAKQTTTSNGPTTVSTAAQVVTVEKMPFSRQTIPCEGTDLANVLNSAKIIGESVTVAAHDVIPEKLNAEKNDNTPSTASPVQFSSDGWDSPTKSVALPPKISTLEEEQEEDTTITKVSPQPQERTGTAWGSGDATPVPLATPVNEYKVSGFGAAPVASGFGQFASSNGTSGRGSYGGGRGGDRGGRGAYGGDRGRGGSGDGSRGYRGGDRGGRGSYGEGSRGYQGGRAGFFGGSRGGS
Protocol: (§2) All dye-stocks were stored as 1 mM solutions in 100% DMSO. The dyes were dissolved in dilution buffer (DB: 14.7 mM Tris, pH 7.25, 1 mM DTT) to yield 11.765 μM dye in 1.1765 DMSO. 17 μl of dye was distributed in a 384 well non-binding plate (Greiner).
(§3) Either SNAP-tagged FUS protein or tag-free PGL-3 protein was thawed at room temperature for at least 10 min, and the buffer was exchanged to partitioning buffer (PB: 50 mM Tris pH 7.25, 500 mM KCl, 5% Glycerol, and 1 mM DTT). The protein was then diluted to 33.3 μM in PB. 3 μl of protein solution were added to the 384 well plate to initiate phase separation, yielding 20 μl of 5 μM protein and 10 μM dye in 75 mM KCl, 0.75% Glycerol, 20 mM Tris, 1 mM DTT, and 1% DMSO or for no dye control reactions, 20 μl of 5 μM protein in 75 mM KCl, 0.75% Glycerol, 20 mM Tris, 1 mM DTT.
(§4) A spinning disk confocal microscope was used to acquire images of the samples. A 60×oil high-NA objective lens was used to capture the condensate droplets. The laser power was set to 20% and the exposure times were adjusted to the fluorescence emission intensity specific for each dye. Exposure times ranged from 1-1000 ms. Appropriate filter settings were used, matching the excitation and emission spectra of the respective dyes. Three images per well were taken. The background signal of protein droplets in the absence of dye was recorded for all applied imaging conditions.
(§5) Fluorescence intensity was measured inside one exemplary target condensate (Intensity inside, I-in) per image and in a region next to the exemplary target condensate (Intensity outside, I-out) by hand using the image analysis software Fiji. An example depicting the regions measured is shown FIG. 2A. Three I-in and three I-out values were measured in total for each dye in each experiment and were averaged. The measured I-in and I-out values for FUS-SNAP condensates on one day of experiments are shown in Table 2 and Table 3, respectively. The measured I-in and I-out values for PGL-3 condensates on one day of experiments are shown in Table 4 and Table 5, respectively. All values were background corrected, based on the background images (no dye controls) taken with the same microscope conditions.
as §1

FUS-SNAP condensates = target: T2, FUS-SNAP condensates (Homo sapiens, UniProt P35637); assay: Fluorescence imaging of dye partitioning in FUS-SNAP condensates (I-in, I-out); settings: for Ratio of intensity inside:outside FUS-SNAP Condensates Day 1 / Ratio of intensity inside:outside FUS-SNAP Condensates Day 2 / Ratio of intensity inside:outside FUS-SNAP Condensates Average: I-in:I-out; for Ratio of intensity inside:outside FUS-SNAP Condensates Day 1 / Ratio of intensity inside:outside FUS-SNAP Condensates Day 2 / Ratio of intensity inside:outside FUS-SNAP Condensates Average / Intensity Inside with Dye Average / Intensity Inside with Dye 1 / Intensity Inside with Dye 2 / Intensity Inside with Dye 3 / Intensity Outside with Dye Average / Intensity Outside with Dye 1 / Intensity Outside with Dye 2 / Intensity Outside with Dye 3: 10 μM dye; for Ratio of intensity inside:outside FUS-SNAP Condensates Average: average of two days; for Intensity Inside with Dye Average / Intensity Inside with Dye 1 / Intensity Inside with Dye 2 / Intensity Inside with Dye 3 / Intensity Inside Dye-No Dye: inside FUS-SNAP condensate; for Intensity Inside with Dye Average / Intensity Inside with Dye 1 / Intensity Inside with Dye 2 / Intensity Inside with Dye 3 / Intensity Outside with Dye Average / Intensity Outside with Dye 1 / Intensity Outside with Dye 2 / Intensity Outside with Dye 3: 5 μM protein; for Intensity Inside with Dye Average / Intensity Outside with Dye Average: average of three images; for Intensity Inside with Dye Average / Intensity Inside with Dye 1 / Intensity Inside with Dye 2 / Intensity Inside with Dye 3 / Intensity Inside Dye-No Dye / Intensity Outside with Dye Average / Intensity Outside with Dye 1 / Intensity Outside with Dye 2 / Intensity Outside with Dye 3 / Intensity Outside (Dye-No Dye): one day of experiments; for Intensity Inside with Dye 1 / Intensity Outside with Dye 1: image 1; for Intensity Inside with Dye 2 / Intensity Outside with Dye 2: image 2; for Intensity Inside with Dye 3 / Intensity Outside with Dye 3: image 3; for Intensity Inside Dye-No Dye / Intensity Outside (Dye-No Dye): background corrected; for Intensity Outside with Dye Average / Intensity Outside with Dye 1 / Intensity Outside with Dye 2 / Intensity Outside with Dye 3 / Intensity Outside (Dye-No Dye): outside FUS-SNAP condensate
T2 sequence (P35637 1-526): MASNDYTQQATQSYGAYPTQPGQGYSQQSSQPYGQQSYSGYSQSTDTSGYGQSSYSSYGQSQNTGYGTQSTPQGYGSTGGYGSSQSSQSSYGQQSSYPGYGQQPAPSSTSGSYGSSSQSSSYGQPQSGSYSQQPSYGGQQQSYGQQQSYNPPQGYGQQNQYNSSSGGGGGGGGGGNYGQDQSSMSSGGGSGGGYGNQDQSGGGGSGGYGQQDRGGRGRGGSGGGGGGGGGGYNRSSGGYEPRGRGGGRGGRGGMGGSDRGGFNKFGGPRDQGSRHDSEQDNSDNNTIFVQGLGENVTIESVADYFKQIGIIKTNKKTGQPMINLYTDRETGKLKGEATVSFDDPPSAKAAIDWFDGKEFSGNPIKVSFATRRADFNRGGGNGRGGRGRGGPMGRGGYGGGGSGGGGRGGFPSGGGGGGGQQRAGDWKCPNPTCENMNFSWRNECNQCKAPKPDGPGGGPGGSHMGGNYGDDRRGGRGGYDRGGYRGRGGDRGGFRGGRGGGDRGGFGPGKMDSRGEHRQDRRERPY
Protocol: as §2, §3, §4, §5, §1

Ratio of FUS-SNAP:PGL-3 [1]	Ratio of intensity inside:outside PGL-3 Condensates Day 1 (PGL-3 condensates)	Ratio of intensity inside:outside PGL-3 Condensates Day 2 (PGL-3 condensates)	Ratio of intensity inside:outside PGL-3 Condensates Average (PGL-3 condensates)	Intensity Inside with Dye Average (PGL-3 condensates)	Intensity Inside with Dye 1 (PGL-3 condensates)	Intensity Inside with Dye 2 (PGL-3 condensates)	Intensity Inside with Dye 3 (PGL-3 condensates)	Intensity Inside Dye-No Dye (PGL-3 condensates)	Intensity Outside with Dye Average (PGL-3 condensates)	Intensity Outside with Dye 1 (PGL-3 condensates)	Intensity Outside with Dye 2 (PGL-3 condensates)	Intensity Outside with Dye 3 (PGL-3 condensates)	Intensity Outside (Dye-No Dye) (PGL-3 condensates)	Ratio of intensity inside:outside FUS-SNAP Condensates Day 1 (FUS-SNAP condensates)	Ratio of intensity inside:outside FUS-SNAP Condensates Day 2 (FUS-SNAP condensates)	Ratio of intensity inside:outside FUS-SNAP Condensates Average (FUS-SNAP condensates)	Intensity Inside with Dye Average (FUS-SNAP condensates)	Intensity Inside with Dye 1 (FUS-SNAP condensates)	Intensity Inside with Dye 2 (FUS-SNAP condensates)	SMILES	other results
1.5	1.9	3.3	2.6	212.6	211.3	211.0	215.7	91.9	168.8	173.1	168.4	164.9	48.4	4.6	3.3	4.0	622.4	638.5	599.9	N=C(N)c1ccc(-c2cc3ccc(C(=N)N)cc3[nH]2)cc1 [Dye 1, DAPI]	Intensity Inside with Dye 3 (FUS-SNAP condensates): 628.8; Intensity Inside Dye-No Dye (FUS-SNAP condensates): 502.4; Intensity Outside with Dye Average (FUS-SNAP condensates): 228.6; Intensity Outside with Dye 1 (FUS-SNAP condensates): 233.9; Intensity Outside with Dye 2 (FUS-SNAP condensates): 233.3; Intensity Outside with Dye 3 (FUS-SNAP condensates): 218.7; Intensity Outside (Dye-No Dye) (FUS-SNAP condensates): 108.6
1.2	1.0	1.1	1.1	269.8	273.9	267.0	268.3	149.0	262.4	263.1	258.0	266.0	141.9	1.4	1.2	1.3	280.9	278.2	278.1	O=c1cc(C(F)(F)F)c2ccc(O)cc2o1 [Dye 2, 7-Hydroxy-4-(trifluoromethyl)-coumarin]	Intensity Inside with Dye 3 (FUS-SNAP condensates): 286.5; Intensity Inside Dye-No Dye (FUS-SNAP condensates): 160.9; Intensity Outside with Dye Average (FUS-SNAP condensates): 232.0; Intensity Outside with Dye 1 (FUS-SNAP condensates): 235.7; Intensity Outside with Dye 2 (FUS-SNAP condensates): 228.5; Intensity Outside with Dye 3 (FUS-SNAP condensates): 232.0; Intensity Outside (Dye-No Dye) (FUS-SNAP condensates): 112.0
2.0	1.5	1.1	1.3	2098.0	2228.4	2006.3	2059.4	1977.3	1447.1	1472.5	1407.6	1461.1	1326.6	2.5	2.8	2.7	3572.7	3451.6	3462.2	O=C(O)c1cc2cc3c4c(c2oc1=O)CCCN4CCC3 [Dye 3, Coumarin 343]	Intensity Inside with Dye 3 (FUS-SNAP condensates): 3804.4; Intensity Inside Dye-No Dye (FUS-SNAP condensates): 3452.8; Intensity Outside with Dye Average (FUS-SNAP condensates): 1498.4; Intensity Outside with Dye 1 (FUS-SNAP condensates): 1486.5; Intensity Outside with Dye 2 (FUS-SNAP condensates): 1529.0; Intensity Outside with Dye 3 (FUS-SNAP condensates): 1479.6; Intensity Outside (Dye-No Dye) (FUS-SNAP condensates): 1378.3
1.9	1.4	1.3	1.3	204.8	212.2	205.0	197.2	84.0	179.0	178.0	179.6	179.5	58.6	2.1	3.0	2.6	10851.1	10755.9	10738.6	CC(=O)c1cc2cc3c4c(c2oc1=O)CCCN4CCC3 [Dye 4, Coumarin 334]	Intensity Inside with Dye 3 (FUS-SNAP condensates): 11058.9; Intensity Inside Dye-No Dye (FUS-SNAP condensates): 10353.6; Intensity Outside with Dye Average (FUS-SNAP condensates): 5030.3; Intensity Outside with Dye 1 (FUS-SNAP condensates): 4894.0; Intensity Outside with Dye 2 (FUS-SNAP condensates): 5118.6; Intensity Outside with Dye 3 (FUS-SNAP condensates): 5078.2; Intensity Outside (Dye-No Dye) (FUS-SNAP condensates): 4890.2
